Earlier results, collected in US20090022779A1, “Phenytoin Formulations, and Uses Thereof in Wound Healing” (Royal College of Surgeons in Ireland, priority 2004, published 2009).

Conditions: background statement

Compound | solubility in water
O=C1N=C([O-])NC1(c1ccccc1)c1ccccc1.[Na+] [Phenyloin sodium salt] | soluble
O=C1NC(=O)C(c2ccccc2)(c2ccccc2)N1 [Phenyloin, 5,5-diphenylimidazolidine-2,4-dione] | only slightly soluble
